Assay results taken from patent publication US20090124631A1, “Combination Therapy” (priority 2007, published 2009).
“Also recorded” adds a separate entry of the source.

Experiments:
[1] = test system: MT3 transcription in human colon cancer HCT15 cells; assay: MT3 transcription in HCT15 cells, microarray analysis; assay type: cell-based; conditions: 1 uM
Text: Total RNAs were extracted and RNA quality analysis was done using Agilent 2100 bioanalyzer and Agilent's RNA Labchip kits. RNAs were labeled with either Cy3 or Cy5 using Agilent's optimized labeling kits and hybridized to Human whole genome 44K Oligo Microarray (Agilent, Palo Alto, Calif.). Slides were scanned using DNA microarry scanner from Agilent and the raw data was extracted using Agilent's image analysis tool (feature extraction software). Normalization and statistical analysis were performed using GeneSpring software. Biological analysis was performed using Biointerpreter software.

[2] = test system: human H460 non-small cell lung tumor xenograft; assay: H460 xenograft, iv-iv combination with taxol; assay type: in vivo, mouse; conditions: H460, Compound A 40 mg/kg i.v. with taxol 60 mg/kg i.v., single dose day 1
Procedure: (§1) Antitumor studies were done using human H460 non-small cell lung tumor xenograft model in male BALBc/A nude mice (from Japan Crea Inc., Japan). Male nude mice were used at age 8-10 weeks. Human carcinoma cells were injected subcutaneously in the animal flank and allowed to form solid tumors. Tumor fragments (about 2 mm^3 fragments) were then removed and implanted subcutaneously to the right flank of other animals. […] Tumor volumes and gross body weight of animals were monitored twice weekly for up to 15 days. Each experimental group contained 6 animals.

[3] = test system: human H460 non-small cell lung tumor, Du145 prostate tumor, TSU-Pr1 prostate tumor, and AZ521 gastric tumor xenograft; assay: Xenograft combination studies with taxol (Example 15); assay type: in vivo, mouse; conditions: oral administration, nude mice with human lung, prostate and gastric tumors
Procedure: as §1, with “cell lung tumor, Du145 prostate tumor, TSU-Pr1 prostate tumor, and AZ521 gastric tumor xenograft” for “cell lung tumor xenograft”, “implanted subcutaneously through a small surgical incision to the” for “implanted subcutaneously to the”, “up to 2 weeks for AZ-521 and TSU-Pr1, or 4 weeks for H460 and Du145 xenografts. Each experimental” for “up to 15 days. Each experimental”

[4] = test system: bFGF transcription in human prostate cancer Du145 cells; assay: bFGF transcription in Du145 cells in vitro; assay type: cell-based; conditions: 3 μM, 24 hour treatment
Procedure: Human prostate cancer Du145 cells were exposed to Cpd A or SAHA (3 microM) for 24 hours. Total RNA was collected by Isogen (Nippongene, Tokyo, Japan) and reverse-transcribed to cDNA by ExScript® RT reagent Kit (TAKARA, Kyoto, Japan). The expression level of bFGF mRNA was detected by ABI7700 analyzer using probe/primer pre-mixture reagent (ABI, Cat# Hs00266645_m1, CA, USA) and TaqMan® Universal PCR Master Mix (ABI, Cat# 430-4437) as described in the ABI's protocol. The expression level of VEGF mRNA was detected in a similar manner using the appropriate probe/primer reagents.

[5] = test system: tubulin acetylation in human bladder carcinoma T24 cells; assay: Cell-based ELISA for tubulin acetylation
Procedure: Bladder carcinoma T24 cells were seeded in black plates with clear bottoms (Costar #3603) at 1×10^4 cells per well in a volume of 100 μl per well, and were allowed to settle for one day at 37° C. in a CO2 incubator. The cells were treated for 16 h with various concentrations of HDAC inhibitors. 3 h before the end of the treatment, Alamar Blue (BioSource) was added to monitor cell viability according to the manufacturer's instructions. At the end of the treatment time, Alamar Blue OD (at 570 nm and 600 nm) was recorded, then the cells were carefully washed in PBS, fixed in pre-chilled methanol for 10 min at −20° C., washed again twice in PBS, and blocked in PBS containing 0.1% Triton X-100 and 1% BSA for a minimum of 30 min. For H3 acetylation, rabbit-anti-acetyl-H3 (Upstate #06-599) was used as primary antibody at a dilution of 1:1000 for 45 min; the secondary antibody was HRP-coupled goat-anti-rabbit (Sigma #A-0545), used at 1:8000 for 45 min. For tubulin acetylation, the primary antibody was mouse anti-acetyl-tubulin (Sigma #T-6793, 1:2000, 45 min) while the secondary was HRP-coupled goat-anti-mouse antibody (Sigma #A-2304, 1:8000, 45 min). All antibodies were diluted in blocking buffer, and the cells were washed in blocking buffer following each antibody incubation. […] The fluorescent signal for acetylation was normalized by dividing with the viability data obtained from Alamar Blue. EC50 was defined as the concentration of compound which gave a signal half-way between the basal (untreated) level and the maximum level generated by high doses of the HDAC pan-inhibitor NVP-LAQ-824.

[6] = test system: MT3 transcription in human colon cancer HCT15 cells; assay: MT3 transcription in HCT15 cells, real time RT-PCR; assay type: cell-based; conditions: 1 uM
Procedure: Total RNAs were extracted from cell pellets or from tumors using QiaShredder and RNeasy mini kit (Qiagen). 1 μg RNA was converted into cDNA using Expand RT enzyme (Roche) and Oligo(dT) primers (Invitrogen) in a 20 μl reaction volume. For quantitative real-time PCR, the primers used for MT3 were [NT] and [NT] and those for β-actin were [NT] and [NT]. Reactions with either pair of primers included an annealing temperature of 63.4° C. All real-time PCR reactions were performed on the MasterCycler ep Realplex (Eppendorf) using FastStart SYBRGreen Master (Roche).

[7] = test system: TSP-1 transcription in mouse stromal cells in implanted H460 tumors; assay: TSP-1 transcription in mouse stromal cells of implanted H460 tumors; assay type: in vivo; conditions: Compound A 100 mg/kg, Compound B 40 mg/kg, 5 repeated oral doses
Procedure: […] Each group contains three mice. […] The expression level of TSP-1 mRNA was detected by ABI7700 analyzer using probe/primer pre-mixture reagent (ABI, Cat# Mm01335418 ml) and TaqMan® Universal PCR Master Mix (ABI, Cat# 430-4437) as described in the ABI's protocol.

[8] = test system: human H460 non-small cell lung tumor xenograft; assay: H460 xenograft, combination with taxotere; assay type: in vivo, mouse; conditions: H460, oral Compound A 3 times weekly with taxotere i.v. single dose
Procedure: as §1, with “mm^2” for “mm^3”, “3 weeks.” for “15 days.”

Nc1ccc(-c2ccccc2)cc1NC(=O)c1ccc(N2CC[C@H](N)C2)cc1 [Compound D]
MT3 transcription [1]: induction

Nc1ccccc1NC(=O)c1ccc(CNc2nccc(-c3cccnc3)n2)cc1 [Compound A]
antitumor activity of taxol [2]: Potentiation | antitumor activity of taxol [3]: Potentiation | bFGF transcription [4]: more dramatic than by SAHA; also recorded: suppression | tubulin acetylation [5]: but not tubulin acetylation | MT3 transcription [6]: much more potent than SAHA | TSP-1 transcription in mouse stromal cells [7]: induction | antitumor activity of taxotere [8]: Potentiation

Nc1ccccc1NC(=O)c1ccc(N2CC[C@H](Nc3cccnc3)C2)cc1 [Compound B]
antitumor activity of taxol [3]: Potentiation | TSP-1 transcription in mouse stromal cells [7]: induction
